Results as given in publication PMC6766977 (International Journal of Cancer, 2019).
pIC50: −log10 of the molar value.

Tests used:
[1] = tested on: LNCaP; test: Cell viability; assay type: cell-based, human; conditions: read-out: IC50 inhibition of cell viability LNCaP; 1 nM R1881, 6 days; mean ± SD
[2] = tested on: KuCaP‐1 prostate cancer xenograft; test: KuCaP-1 patient-derived xenograft in vivo efficacy; parameters: species or system mice; conditions: for ΔT/ΔC tumor volume: Day 68; for Maximal body weight loss: vehicle group 10%
[3] = tested on: LAPC‐4 prostate cancer xenograft; test: LAPC-4 xenograft in vivo efficacy; parameters: species or system mice; conditions: for ΔT/ΔC tumor volume: Day 56

SMILES: C[C@@H](Cn1ccc(-c2ccc(C#N)c(Cl)c2)n1)NC(=O)c1cc([C@@H](C)O)[nH]n1 [(S,R)‐darolutamide]
- pIC50 [1]: 5.33

SMILES: C[C@H](O)c1cc(C(=O)N[C@@H](C)Cn2ccc(-c3ccc(C#N)c(Cl)c3)n2)n[nH]1 [(S,S)‐darolutamide]
- pIC50 [1]: 5.28

SMILES: CC(O)(CS(=O)(=O)c1ccc(F)cc1)C(=O)Nc1ccc(C#N)c(C(F)(F)F)c1 (centres unmarked) [Bicalutamide, reference compound]
- pIC50 [1]: 5.46

SMILES: CC(O)c1cc(C(=O)N[C@@H](C)Cn2ccc(-c3ccc(C#N)c(Cl)c3)n2)[nH]n1 (some centres unmarked) [Darolutamide]
- ΔT/ΔC tumor volume ([2]; KuCaP‐1, 40 mg/kg bi‐daily oral): 45%
- Maximal body weight loss ([2]; KuCaP‐1, 40 mg/kg bi‐daily): 8%
- ΔT/ΔC tumor volume ([2]; KuCaP‐1, 100 mg/kg bi‐daily oral): 26%
- Maximal body weight loss ([2]; KuCaP‐1, 100 mg/kg bi‐daily): 6%
- ΔT/ΔC tumor volume ([3]; LAPC‐4, 100 mg/kg bi‐daily oral): 25%
- ΔT/ΔC tumor volume ([3]; LAPC‐4, 200 mg/kg once daily oral): 23%
- Reduction of FKBP5 expression in tumors ([3]; LAPC‐4 tumors, highest treatment doses, 4 hr after final dosing): 50%
- pIC50 [1]: 5.28

SMILES: CNC(=O)c1ccc(N2C(=S)N(c3ccc(C#N)c(C(F)(F)F)c3)C(=O)C2(C)C)cc1F [Enzalutamide, reference compound]
- ΔT/ΔC tumor volume ([2]; KuCaP‐1, 30 mg/kg daily): 70%
- ΔT/ΔC tumor volume ([2]; KuCaP‐1, 100 mg/kg daily): 99%

SMILES: CC(=O)c1cc(C(=O)N[C@@H](C)Cn2ccc(-c3ccc(C#N)c(Cl)c3)n2)[nH]n1 [Keto‐darolutamide]
- pIC50 [1]: 5.49
